# Measurements published in patent US20170073337A1, “DIHYDROTHIAZINE AND DIHYDROOXAZINE DERIVATIVES HAVING BACE1 INHIBITORY ACTIVITY” (Shionogi & Co., Ltd., priority 2014, published 2017).
# Where two headings read alike, the source gives them in different places.
# Assays:
# [1] = target: T1, human ether-a-go-go related gene (hERG) channel (Homo sapiens, UniProt Q12809); assay: hERG test; assay type: cell-based; conditions: % inhibition of IKr tail peak current at 3 uM; CHO cells expressing hERG
# T1 construct: expressed in transfected cells; host or cells: CHO cells
# T1 sequence (Q12809 whole entry): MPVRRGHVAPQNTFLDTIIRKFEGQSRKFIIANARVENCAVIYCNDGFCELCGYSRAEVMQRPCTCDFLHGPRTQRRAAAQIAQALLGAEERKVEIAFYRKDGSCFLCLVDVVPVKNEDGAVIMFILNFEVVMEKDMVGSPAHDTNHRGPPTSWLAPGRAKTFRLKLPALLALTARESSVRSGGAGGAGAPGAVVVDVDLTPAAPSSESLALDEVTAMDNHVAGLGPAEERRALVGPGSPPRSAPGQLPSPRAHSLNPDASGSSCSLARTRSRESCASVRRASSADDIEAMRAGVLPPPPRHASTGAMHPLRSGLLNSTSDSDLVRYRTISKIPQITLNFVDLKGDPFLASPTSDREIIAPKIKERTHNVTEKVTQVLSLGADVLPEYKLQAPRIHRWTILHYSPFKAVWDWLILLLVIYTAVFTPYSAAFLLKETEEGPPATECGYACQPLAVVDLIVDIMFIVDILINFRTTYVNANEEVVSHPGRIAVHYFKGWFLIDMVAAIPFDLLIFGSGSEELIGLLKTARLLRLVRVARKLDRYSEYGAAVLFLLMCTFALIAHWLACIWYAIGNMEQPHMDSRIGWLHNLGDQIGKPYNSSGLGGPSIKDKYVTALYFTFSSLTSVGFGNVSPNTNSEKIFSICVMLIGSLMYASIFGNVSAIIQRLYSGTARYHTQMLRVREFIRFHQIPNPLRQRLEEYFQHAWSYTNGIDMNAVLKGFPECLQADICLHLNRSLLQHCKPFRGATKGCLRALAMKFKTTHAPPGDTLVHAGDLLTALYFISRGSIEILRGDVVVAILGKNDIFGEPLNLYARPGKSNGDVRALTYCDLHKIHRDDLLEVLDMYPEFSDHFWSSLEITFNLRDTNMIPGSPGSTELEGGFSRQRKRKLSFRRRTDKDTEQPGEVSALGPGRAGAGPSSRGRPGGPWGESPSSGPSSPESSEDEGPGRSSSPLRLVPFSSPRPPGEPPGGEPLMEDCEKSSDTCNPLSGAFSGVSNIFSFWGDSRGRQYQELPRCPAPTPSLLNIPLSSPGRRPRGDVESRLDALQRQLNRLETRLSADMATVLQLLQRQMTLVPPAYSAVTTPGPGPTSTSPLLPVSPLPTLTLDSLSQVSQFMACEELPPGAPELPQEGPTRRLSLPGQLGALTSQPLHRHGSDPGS
# Text: For the purpose of assessing risk of an electrocardiogram QT interval prolongation, effects on delayed rectifier K+ current (IKr), which plays an important role in the ventricular repolarization process of the compound of the present invention, was studied using CHO cells expressing human ether-a-go-go related gene (hERG) channel.
# A cell was retained at a membrane potential of […] by whole cell patch clamp method using an automated patch clamp system (QPatch:Sophion Bioscience A/S). After application of leak potential at −50 mV, IKr induced by depolarization pulse stimulation at +20 mV for 2 seconds and, further, repolarization pulse stimulation at −50 mV for 2 seconds was recorded.
# CYP2C19 = target: T2, CYP2C19 (Homo sapiens, UniProt P33261); assay: CYP inhibition test (CYP2C19); assay type: in vitro ADME; conditions: pooled human liver microsomes; mephenytoin 4′-hydroxylation
# T2 construct: The commercially available pooled human liver microsomes are used as an enzyme resource; from tissue; host or cells: pooled human liver microsomes
# T2 sequence (P33261 whole entry): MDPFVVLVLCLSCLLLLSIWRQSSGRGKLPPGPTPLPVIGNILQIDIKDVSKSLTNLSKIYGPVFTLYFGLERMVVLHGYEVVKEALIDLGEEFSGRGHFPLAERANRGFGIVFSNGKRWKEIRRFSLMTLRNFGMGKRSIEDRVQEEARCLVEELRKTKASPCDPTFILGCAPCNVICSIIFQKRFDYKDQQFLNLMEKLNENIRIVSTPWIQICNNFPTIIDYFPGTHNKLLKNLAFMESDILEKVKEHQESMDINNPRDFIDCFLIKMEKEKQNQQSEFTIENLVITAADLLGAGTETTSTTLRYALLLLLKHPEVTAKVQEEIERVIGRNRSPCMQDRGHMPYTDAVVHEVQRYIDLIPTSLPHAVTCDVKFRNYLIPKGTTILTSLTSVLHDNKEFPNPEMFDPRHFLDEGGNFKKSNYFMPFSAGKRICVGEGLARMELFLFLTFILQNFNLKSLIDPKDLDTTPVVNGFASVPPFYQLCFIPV
# Text: (§1) The CYP inhibition test is a test to assess the inhibitory effect of a compound of the present invention towards typical substrate metabolism reactions on CYP enzymes in human liver microsomes. The marker reactions on human main five CYP enzymes (CYP1A2, 2C9, 2C19, 2D6, and 3A4) are used as follows: 7-ethoxyresorufin O-deethylation (CYP1A2), tolbutamide methyl-hydroxylation (CYP2C9), mephenytoin 4′-hydroxylation (CYP2C19), dextromethorphan O-demethylation (CYP2D6), and terfenadine hydroxylation (CYP3A4). The commercially available pooled human liver microsomes are used as an enzyme resource.
# (§2) The reaction conditions were as follows: substrate, 0.5 μmol/L ethoxyresorufin (CYP1A2), 100 μmol/L tolbutamide (CYP2C9), 50 μmol/L, S-mephenytoin (CYP2C19), 5 μmol/L dextromethorphan (CYP2D6), 1 μmol/L terfenadine (CYP3A4): reaction time, 15 minutes: reaction temperature, 37° C.; enzyme, pooled human liver microsomes 0.2 mg protein/mL; concentrations of the compound of the present invention, 1, 5, 10, 20 μmol/L (four points).
# (§3) Five kinds of substrates, human liver microsomes, and a compound solution of the present invention in […] Hepes buffer were added to a 96-well plate at the composition as described above as a reaction solution. NADPH as a cofactor was added to this 96-well plate in order to initiate metabolism reactions. After the incubation at 37° C.for […], a methanol/acetonitrile=1/1 (v/v) solution was added to stop the reaction. After the centrifugation at 3000 rpm for 15 minutes, resorufin (CYP1A2 metabolite) in the supernatant was quantified by a fluorescent plate reader, and hydroxytolbutamide (CYP2C9 metabolite), 4′-hydroxymephenytoin (CYP2C19 metabolite), dextrorphan (CYP2D6 metabolite), and terfenadine alcohol metabolite (CYP3A4 metabolite) in the supernatant were quantified by LC/MS/MS.
# (§4) The sample adding DMSO to a reaction system instead of compound of the present invention solution was adopted as a control (100%) because DMSO was used as a solvent to dissolve a compound of the present invention. Remaining activity (%) was calculated at each concentration of a compound of the present invention, and IC50 value was calculated by reverse presumption by a logistic model using a concentration and an inhibition rate.
# CYP2C9 = target: T3, CYP2C9 (Homo sapiens, UniProt P11712); assay: CYP inhibition test (CYP2C9); assay type: in vitro ADME; conditions: pooled human liver microsomes; tolbutamide methyl-hydroxylation
# T3 construct: The commercially available pooled human liver microsomes are used as an enzyme resource; from tissue; host or cells: pooled human liver microsomes
# T3 sequence (P11712 whole entry): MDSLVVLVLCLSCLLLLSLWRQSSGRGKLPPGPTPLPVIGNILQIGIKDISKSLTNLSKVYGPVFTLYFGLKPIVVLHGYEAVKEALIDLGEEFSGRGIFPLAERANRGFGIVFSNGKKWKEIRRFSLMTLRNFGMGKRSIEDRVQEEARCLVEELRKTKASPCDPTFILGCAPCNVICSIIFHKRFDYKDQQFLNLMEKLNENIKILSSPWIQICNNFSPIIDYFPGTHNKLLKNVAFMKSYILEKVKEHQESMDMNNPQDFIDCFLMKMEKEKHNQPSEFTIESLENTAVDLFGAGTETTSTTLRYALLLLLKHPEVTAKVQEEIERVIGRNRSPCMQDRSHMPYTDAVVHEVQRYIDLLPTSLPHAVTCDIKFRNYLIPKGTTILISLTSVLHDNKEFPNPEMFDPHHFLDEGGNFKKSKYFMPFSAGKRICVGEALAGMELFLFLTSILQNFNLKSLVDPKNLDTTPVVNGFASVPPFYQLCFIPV
# Text: as §1, §2, §3, §4
# Solubility test = assay type: physicochemical; conditions: for solubility kinetic at 1 h: kinetic from dmso stock; for solubility kinetic at 16 h: solubility in JP 2nd fluid B, 1% DMSO, *2: shaken for 1 hour at room temperature
# Method: A 10 mmol/L solution of the compound was prepared with DMSO, and 2 μL of the compound of the present invention solution was added, respectively, to 198 μL of JP 1st fluid (water was added to 2.0 g of sodium chloride and 7.0 ml, of hydrochloric acid to reach 1000 mL) and JP 2nd fluid (See Table 4). The mixture was left standing for 16 hours at 25° C. or shaken for 1 hour at ruom temperature, and the mixture was vacuum-filtered. The […] was ten or one hundred-fold diluted with metbanol/water=1/1 (v/v) or MeCN/MeOH/H2O(=1/1/2), and the compound concent ration in the filtrate was measured with LC/MS or solid phase extraction (SPE)/MS by the absolute calibration method.
# Recombinant human BACE1 = target: T4, Recombinant human BACE1 (Homo sapiens, UniProt P56817); assay: Assay of BACE1 inhibitory activity: 384-well; assay type: biochemical; conditions: Assay format 384-well
# T4 construct: purchased R&D Systems
# T4 sequence (P56817 46-501): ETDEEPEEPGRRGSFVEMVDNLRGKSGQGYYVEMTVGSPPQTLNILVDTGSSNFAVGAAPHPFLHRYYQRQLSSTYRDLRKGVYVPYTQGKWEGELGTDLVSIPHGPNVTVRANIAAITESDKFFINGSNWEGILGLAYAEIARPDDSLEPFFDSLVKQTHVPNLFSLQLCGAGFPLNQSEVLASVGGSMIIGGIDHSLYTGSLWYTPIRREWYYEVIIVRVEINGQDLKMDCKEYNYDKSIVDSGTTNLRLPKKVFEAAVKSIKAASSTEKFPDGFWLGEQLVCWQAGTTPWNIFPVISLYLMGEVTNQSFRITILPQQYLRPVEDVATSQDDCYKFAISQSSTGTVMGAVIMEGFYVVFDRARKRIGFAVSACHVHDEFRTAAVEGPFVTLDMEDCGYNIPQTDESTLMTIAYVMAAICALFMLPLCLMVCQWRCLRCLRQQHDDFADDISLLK
# Method: 5 μL of substrate peptide solution (Biotin-XSEVNLDAEFRHDSGC-Eu: X=ε-amino-n-capronic acid, Eu=Europium eryplate) was added to each well of 384-well plate (a black plate: Corning), and after addition of 0.1 μl of the compound of the present invention (DMSO solution) and 5 μl of Recombinant human BACE1 (R&D Systems), the reaction mixture was incubated at 25° C. for 2 hours. The substrate peptide was synthesized by reacting Cryptate TBPCOOH mono SMP (CIS bio international) with Biotin-XSEVNLDAEFRHDSGC (Peptide Institute, Inc.).
# After the incubation for reaction, 10 μl of 8.0 μg/ml Streptavidin-XL665 (CIS bio International) dissolved in phosphate buffer (150 mmol/L K2HPO4-KH2PO4, pH 7.0, 0.008% Triton X-100, 0.8 mol/L KF) was added to each well and left stand at 25° C. for 30 minutes.
# [2] = tested on: Aβ production in neuroblastoma SH-SY5Y cells (SH/APPwt); assay: β-amyloid (Aβ) production inhibitory effect in cell: 384-well; assay type: cell-based; conditions: Homo sapiens, Assay format 384-well
# Method: Neuroblastoma SH-SY5Y cells (SH/APPwt) with human wild-type β-APT excessively expressed therein were prepared at 4×10^5 cells/mL, and 50 μl portions thereof were inoculated into each well of a 384-well culture plate (Corning) added 0.5 μl of the test compound of the present invention (DMSO solution). The final DMSO concentration was 1%, and the amount of the cell culture was 50 μl. After the incubation was performed for 21 hours from the cell seeding, 5 μl of the culture supernatant was collected from each fraction. The amount of the Aβ in each fraction was measured.
# The Aβ amount was measured as follows. 5 μl of a homogeneous time resolved fluoresrenee (HTRF) measurement reagent (Amyloid β1-40 peptide; CIS bio international) and 5 μl of the culture supernatant were put into a 384′well plate (a black plate: Corning) and mixed with each other, and then left standing overnight at 4° C. while the light was shielded. Then, the fluorescence intensity (620 nm and 665 nm) was measured with EnViston (Perkin Elmer life sciences).
# CYP1A2 = target: T5, CYP1A2 (Homo sapiens, UniProt P05177); assay: CYP inhibition test (CYP1A2); assay type: in vitro ADME; conditions: pooled human liver microsomes; 7-ethoxyresorufin O-deethylation
# T5 construct: The commercially available pooled human liver microsomes are used as an enzyme resource; from tissue; host or cells: pooled human liver microsomes
# T5 sequence (P05177 1-516): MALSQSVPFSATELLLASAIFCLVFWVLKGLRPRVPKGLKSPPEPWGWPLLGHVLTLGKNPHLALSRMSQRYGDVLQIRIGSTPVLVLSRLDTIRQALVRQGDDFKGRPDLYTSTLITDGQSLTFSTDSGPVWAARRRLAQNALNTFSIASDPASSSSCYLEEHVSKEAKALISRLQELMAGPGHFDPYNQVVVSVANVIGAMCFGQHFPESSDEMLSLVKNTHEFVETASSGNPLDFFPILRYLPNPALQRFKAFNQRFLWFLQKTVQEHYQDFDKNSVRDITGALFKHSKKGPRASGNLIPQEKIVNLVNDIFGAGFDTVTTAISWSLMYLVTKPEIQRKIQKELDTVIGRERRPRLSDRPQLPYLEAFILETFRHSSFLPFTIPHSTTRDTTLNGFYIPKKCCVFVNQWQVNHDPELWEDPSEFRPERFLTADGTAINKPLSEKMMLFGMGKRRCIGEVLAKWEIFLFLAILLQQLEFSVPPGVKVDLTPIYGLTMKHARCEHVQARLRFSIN
# Text: as §1, §2, §3, §4
# CYP3A4 = target: T6, CYP3A4 (Homo sapiens, UniProt P08684); assay: CYP inhibition test (CYP3A4); assay type: in vitro ADME; conditions: pooled human liver microsomes; terfenadine hydroxylation
# T6 construct: The commercially available pooled human liver microsomes are used as an enzyme resource; from tissue; host or cells: pooled human liver microsomes
# T6 sequence (P08684 whole entry): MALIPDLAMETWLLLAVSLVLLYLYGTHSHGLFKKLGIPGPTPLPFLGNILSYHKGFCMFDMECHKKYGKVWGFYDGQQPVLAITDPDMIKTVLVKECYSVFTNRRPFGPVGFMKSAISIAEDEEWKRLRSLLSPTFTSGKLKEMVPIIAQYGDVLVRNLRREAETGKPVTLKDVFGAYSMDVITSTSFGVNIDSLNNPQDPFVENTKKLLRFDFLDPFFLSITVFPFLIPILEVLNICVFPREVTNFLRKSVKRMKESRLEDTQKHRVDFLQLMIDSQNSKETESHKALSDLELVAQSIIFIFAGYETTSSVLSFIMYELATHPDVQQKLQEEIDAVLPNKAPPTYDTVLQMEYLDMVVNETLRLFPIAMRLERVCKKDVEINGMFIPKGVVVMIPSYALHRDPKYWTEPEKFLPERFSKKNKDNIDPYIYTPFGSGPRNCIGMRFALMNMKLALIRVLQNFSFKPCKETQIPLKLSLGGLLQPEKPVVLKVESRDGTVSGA
# Text: as §1, §2, §3, §4
# Metabolic stability test = assay type: in vitro ADME; conditions: human liver microsomes, 37° C., 30 minutes, NADPH
# Method: Using a commercially available pooled human liver microsomes, a compound of the present invention was reacted for a constant time, a remaining rate was calculated by comparing a reacted sample and an unreacted sample, thereby, a degree of metabolism in liver was assessed.
# A reaction was performed (oxidative reaction) at 37° C. for 0 minute or 30 minutes in the presence of 1 mmol/L NADPH in 0.2 mL of a buffer (60 mmol/L Tris-HCl pH 7.4, 150 mmol/L potassium chloride, 10 mmol/L magnesium chloride) containing 0.5 mg protein/mL of human liver microsomes. After the reaction, 50 μL of the reaction solution was added to 100 μL of a methanol/acetonltrile=1/1 (v/v), mixed and centrifuged at 3000 rpm for 15 minutes. The compound of the present invention in the supernatant was quantified by LC/MS/MS or solid phase extraction (SPE)/MS, and a remaining amount of the compound of the present invention after the reaction area calculated, letting a compound amount at 0 minute reaction time to be 100%.
# CYP2D6 = target: T7, CYP2D6 (Homo sapiens, UniProt P10635); assay: CYP inhibition test (CYP2D6); assay type: in vitro ADME; conditions: pooled human liver microsomes; dextromethorphan O-demethylation
# T7 construct: The commercially available pooled human liver microsomes are used as an enzyme resource; from tissue; host or cells: pooled human liver microsomes
# T7 sequence (P10635 whole entry): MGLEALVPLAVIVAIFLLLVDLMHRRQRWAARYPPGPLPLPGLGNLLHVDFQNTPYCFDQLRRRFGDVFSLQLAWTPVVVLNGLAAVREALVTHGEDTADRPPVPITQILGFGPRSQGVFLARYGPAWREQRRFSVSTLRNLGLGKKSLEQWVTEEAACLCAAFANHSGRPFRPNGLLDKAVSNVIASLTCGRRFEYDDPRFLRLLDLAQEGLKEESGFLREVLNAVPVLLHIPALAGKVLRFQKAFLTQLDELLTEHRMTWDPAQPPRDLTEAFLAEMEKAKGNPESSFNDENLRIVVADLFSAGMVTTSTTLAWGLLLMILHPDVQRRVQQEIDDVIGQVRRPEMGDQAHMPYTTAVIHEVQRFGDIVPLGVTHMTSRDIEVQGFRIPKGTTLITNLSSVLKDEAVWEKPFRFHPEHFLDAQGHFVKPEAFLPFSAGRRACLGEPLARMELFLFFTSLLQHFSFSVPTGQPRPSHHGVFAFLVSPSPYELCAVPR
# Text: as §1, §2, §3, §4
# [3] = JP 1st fluid, pH 1.2, simulated gastric fluid, read-out: JP1
# [4] = JP 2nd fluid B, pH 6.8, aqueous buffer, read-out: JP2_μM
IC50 (CYP2C19) [µM],IC50 (CYP2C9) [µM],solubility kinetic at 1 h (Solubility test; [3]) [µM],solubility kinetic at 16 h (Solubility test; read-out: JP2_μM) [µM],IC50 (Recombinant human BACE1) [µM],IC50 [2] [µM],IC50 (CYP1A2) [µM],IC50 (CYP3A4) [µM],remaining % (Metabolic stability test) [%],IC50 (CYP2D6) [µM],solubility kinetic at 1 h (Solubility test; [4]) [µM],SMILES,hERG_3 uM_% [1] [%]
≥ 20,≥ 20,> 50,>50,0.0137,0.00068,≥ 20,–,–,–,–,C[C@]1(c2cc(NC(=O)c3ccc(OCF)cn3)ccc2F)N=C(N)SCC12CC(F)(F)C2 [Compound I-58],58.6
≥ 20,≥ 10,> 50,>50,0.0355,0.018,≥ 20,≥ 10,–,–,–,COCC(F)(F)[C@H]1OC(N)=N[C@](C)(c2cc(NC(=O)c3cnc(OC)cn3)ccc2F)[C@H]1F [Compound I-80],8.9
≥ 20,≥ 10,33.5,–,0.0235,0.00042,≥ 20,≥ 20,64.2,≥ 20,> 50,C[C@H]1SC(N)=N[C@](C)(c2cccc(NC(=O)c3ccc(OCF)cn3)c2)[C@H]1F [Compound I-107],–
≥ 20,≥ 20,> 50,>50.0,0.0343,0.0072,≥ 10,≥ 20,78.9,≥ 20,–,C[C@H]1SC(N)=N[C@](C)(c2cccc(NC(=O)c3ccc(F)cn3)c2)[C@H]1F [Compound I-115],–
≥ 20,≥ 10,42.1,–,0.0225,0.0011,≥ 20,≥ 20,81.1,≥ 10,> 50,C[C@H]1SC(N)=N[C@](C)(c2cc(NC(=O)c3ncc(C#N)cc3F)ccc2F)[C@H]1F [Compound I-110],–
≥ 20,≥ 20,47.3,–,0.0305,0.00074,≥ 20,≥ 20,56.8,≥ 20,> 50,Cc1cc(C#N)cnc1C(=O)Nc1cccc([C@@]2(C)N=C(N)S[C@H](C)[C@@H]2F)c1 [Compound I-105],–
≥ 20,≥ 10,> 50,>50.0,0.0245,0.00099,≥ 20,≥ 20,89.4,≥ 10,–,Cc1cc(C#N)cnc1C(=O)Nc1ccc(F)c([C@@]2(C)N=C(N)O[C@H](C3(F)CC3)[C@@H]2F)c1 [Compound I-99],–
≥ 20,≥ 20,> 50,–,0.164,0.04,≥ 20,≥ 20,–,≥ 20,48.6,C[C@@H]1SC(N)=N[C@](C)(c2cc(NC(=O)c3ccc(C#N)cn3)ccc2F)[C@@H]1F [Compound I-113],–
≥ 20,≥ 10,> 50,>50.0,0.0235,0.45,≥ 20,≥ 10,105,–,–,COc1ccc(C(=O)Nc2ccc(F)c([C@@]3(C)N=C(N)O[C@H](C(F)(F)C4CC4)[C@@H]3F)c2)nn1 [Compound I-95],–
